Target: T1, MoOxdC (Pyricularia oryzae, UniProt G4NLF1)
T1 construct: gene MGG_14061
Details: 50 mM citrate pH 4.0, 37 °C, 30 min; 0.2 mL of 8 mM oxalic acid in 1.5 mL; no added metal

T1 sequence (G4NLF1 1-500 limits assumed): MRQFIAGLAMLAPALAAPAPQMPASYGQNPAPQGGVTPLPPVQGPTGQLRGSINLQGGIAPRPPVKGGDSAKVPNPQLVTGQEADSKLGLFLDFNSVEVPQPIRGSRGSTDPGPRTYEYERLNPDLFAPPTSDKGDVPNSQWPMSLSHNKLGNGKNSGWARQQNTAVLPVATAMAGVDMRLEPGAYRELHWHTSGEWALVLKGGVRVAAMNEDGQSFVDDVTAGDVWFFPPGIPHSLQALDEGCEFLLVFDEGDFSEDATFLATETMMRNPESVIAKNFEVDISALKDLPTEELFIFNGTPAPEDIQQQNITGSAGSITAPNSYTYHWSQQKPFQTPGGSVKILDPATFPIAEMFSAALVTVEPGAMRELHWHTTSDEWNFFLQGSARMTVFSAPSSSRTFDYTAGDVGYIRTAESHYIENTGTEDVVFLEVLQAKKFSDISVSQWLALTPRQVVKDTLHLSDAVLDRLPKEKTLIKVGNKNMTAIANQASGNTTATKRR

Compound: O=C(O)C(=O)O [oxalic acid]
- residual oxalic acid by Fe(III)-sulfosalicylate absorbance at 510 nm; formic aci: The oxalate decarboxylase activity of the purified recombinant MoOxdC protein was analyzed.
